Reference: patent US10093644B2, “3-[(Benzo[D][1,3]dioxolan-4-yl)-oxy]-3-arylpropylamine type compounds and applications thereof” (NHWA PHARMA. CORPORATION, priority 2014, dated 2018)
Several values for one entry are separate records, joined by “and”; a condition that tells them apart may be missing. Equal entries are not always repeated. Where two headings read alike, the source gives them in different places.

Columns and labels:
[1] = system: mice; experiment: Mice forced swimming test (acquired despair experiment); format: in vivo; settings: for immobilized time of mice swimming: i.g. (gavage); for ED50: Mus musculus, read-out: swimming ED50
[2] = system: mice; experiment: Mice tail suspension test (acquired despair experiment); format: in vivo; settings: for immobilized time of mice tail suspension: i.g. (gavage); for ED50: Mus musculus, read-out: tail suspension ED50
[3] = Acid stability evaluation in diluted hydrochloric acid; format: physicochemical; settings: 0.1 mol/L hydrochloric acid
Experimental: The compound according to the invention was incubated in diluted hydrochloric acid (0.1 mol/L) at 37° C. for 2 h to test the decomposition of the compound (shown as %) and the results were shown as follows.

[4] = Therapeutic index evaluation (LD50/ED50); format: in vivo; settings: for therapeutic index (swimming): LD50/ED50, swimming ED50; for therapeutic index (tail suspension): LD50/ED50, tail suspension ED50; for LD50: half lethal dose

Row | SMILES | swimming ED50 ([1]; half effective dose) [mg/kg] | tail suspension ED50 ([2]; half effective dose) [mg/kg] | ratio of the compound after incubation in diluted hydrochloric acid at 37° C. for 2 h [3] [%] | therapeutic index (swimming) [4] | therapeutic index (tail suspension) [4] | LD50 [4] [mg/kg] | immobilized time of mice swimming ([1]; 5 mg/kg, oxalate form) [s] | immobilized time of mice swimming ([1]; 10 mg/kg, oxalate form) [s] | ED50 ([1]; half effective dose) [mg/kg] | immobilized time of mice tail suspension ([2]; 5 mg/kg, oxalate form) [s] | immobilized time of mice tail suspension ([2]; 10 mg/kg, oxalate form) [s] | ED50 ([2]; half effective dose) [mg/kg] | LD50 ([4]; in vivo, read-out: LD50) [mg/kg] | immobilized time of mice swimming ([1]; 20 mg/kg) [s] | ED50 [1] [mg/kg] | immobilized time of mice tail suspension ([2]; 20 mg/kg) [s] | ED50 [2] [mg/kg]
1 | CNCCC(Oc1cccc2c1OCO2)c1cccs1 (centres unmarked) [ammuxetine, reference compound] | 2.58 | 3.89 | 44 | 68.9 | 45.7 | 177.8 |  |  |  |  |  |  |  |  |  |  | 
2 | CNCCC(Oc1cccc2c1OCO2)c1ccccc1.O=C(O)C(=O)O (centres unmarked) [compound 2, 3-[(benzo[d][1,3]dioxolan-4-yl)-oxy]-N-methyl-3-phenylpropylamine oxalate] |  |  | 99 | 88.8 | 25.2 |  | 38.9 ± 34.5 | 28.6 ± 19.3 | 2 | 44.3 ± 34.5 | 8.2 ± 13.7 | 7.06 | 178 |  |  |  | 
3 | CN(C)CCC(Oc1cccc2c1OCO2)c1ccc(F)cc1.O=C(O)C(=O)O (centres unmarked) [compound 3, 3-[(benzo[d][1,3]dioxolan-4-yl)-oxy]-3-(4-fluorophenyl)-N,N-dimethylpropylamine oxalate] |  |  | 99 | 155.6 | 82.2 |  | 42.0 ± 56.1 | 31.0 ± 54.2 | 2.28 | 22.0 ± 28.2 | 9.2 ± 13.3 | 4.32 | 355 |  |  |  | 
4 | CNCCC(Oc1cccc2c1OCO2)c1ccc(F)cc1.O=C(O)C(=O)O (centres unmarked) [compound 4, 3-[(benzo[d][1,3]dioxolan-4-yl)-oxy]-3-(4-fluorophenyl)-N-methylpropylamine oxalate] |  |  | 99 |  |  |  | 74.1 ± 36.8 | 60.1 ± 42.2 |  | 21.4 ± 12.8 | 29.6 ± 13.1 |  |  |  |  |  | 
5 | CNCCC(Oc1cccc2c1OCO2)c1cccc(OC)c1.O=C(O)C(=O)O (centres unmarked) [compound 12, 3-[(benzo[d][1,3]dioxolan-4-yl)-oxy]-3-(3-methoxylphenyl)-N-methylpropylamine oxalate] |  |  | 99 | 60.7 | 37.4 |  | 92.0 ± 45.5 | 58.2 ± 45.3 | 5.28 | 64.1 ± 24.5 | 33.0 ± 15.6 | 8.57 | 320 |  |  |  | 
6 | Cc1cccc(C(CCN(C)C)Oc2cccc3c2OCO3)c1.O=C(O)C(=O)O (centres unmarked) [compound 13, 3-[(benzo[d][1,3]dioxolan-4-yl)-oxy]-3-(3-methylphenyl)-N,N-dimethylpropylamine oxalate] |  |  | 99 |  |  |  | 87.9 ± 55.6 | 60.2 ± 38.6 |  | 71.3 ± 32.7 | 29.8 ± 21.3 |  |  |  |  |  | 
7 | CNCC[C@H](Oc1cccc2ccccc12)c1cccs1 [duloxetine, reference compound] |  |  | 18 | 98.8 and 98.9 | 82.1 |  |  | 76.0 ± 57.8 |  |  | 34.7 ± 42.3 |  | 489 | 41.2 ± 33.3 | 4.94 | 17.8 ± 18.5 | 5.96
